{"source": "ChEMBL document CHEMBL3046027", "about": "“In vitro and in vivo antifungal activity of synthetic pure isothiocyanates against Sclerotinia sclerotiorum” (Pest Manag Sci, 2011)", "key": {"[1]": {"test_system": "Sclerotinia sclerotiorum", "test": "In vivo antifungal Sclerotinia sclerotiorum in Pepper (Capsicum annuum L. cv. Sera Demre) assessed as inhibition of mycelial growth in volatile phase at 292 umol/L measured after 10 to 14 weeks", "assay_type": "functional"}, "[2]": {"test_system": "Sclerotinia sclerotiorum", "test": "Antifungal activity against Sclerotinia sclerotiorum assessed as inhibition of mycelial growth in contact phase at 4387 umol/l measured at 20 degC after 5 days", "assay_type": "functional", "conditions": "120 h, read-out: GI"}, "[3]": {"test_system": "Sclerotinia sclerotiorum", "test": "Antifungal activity against Sclerotinia sclerotiorum assessed as inhibition of mycelial growth in contact phase at 2924 umol/l measured at 20 degC after 5 days", "assay_type": "functional", "conditions": "120 h, read-out: GI"}, "[4]": {"test_system": "Sclerotinia sclerotiorum", "test": "Antifungal activity against Sclerotinia sclerotiorum assessed as inhibition of mycelial growth in contact phase at 1462 umol/l measured at 20 degC after 5 days", "assay_type": "functional", "conditions": "120 h, read-out: GI"}, "[5]": {"test_system": "Sclerotinia sclerotiorum", "test": "Antifungal activity against Sclerotinia sclerotiorum assessed as inhibition of mycelial growth in contact phase at 1316 umol/l measured at 20 degC after 5 days", "assay_type": "functional", "conditions": "120 h, read-out: GI"}, "[6]": {"test_system": "Sclerotinia sclerotiorum", "test": "Antifungal activity against Sclerotinia sclerotiorum assessed as inhibition of mycelial growth in contact phase at 1024 umol/l measured at 20 degC after 5 days", "assay_type": "functional", "conditions": "120 h, read-out: GI"}, "[7]": {"test_system": "Sclerotinia sclerotiorum", "test": "Antifungal activity against Sclerotinia sclerotiorum assessed as inhibition of germination in volatile phase at 439 umol/l measured at 20 degC after 5 days", "assay_type": "functional", "conditions": "120 h"}, "[8]": {"test_system": "Sclerotinia sclerotiorum", "test": "Antifungal activity against Sclerotinia sclerotiorum assessed as inhibition of germination in volatile phase at 146 umol/l measured at 20 degC after 5 days", "assay_type": "functional", "conditions": "120 h"}, "[9]": {"test_system": "Sclerotinia sclerotiorum", "test": "Antifungal activity against Sclerotinia sclerotiorum assessed as inhibition of germination in volatile phase at 73 umol/l measured at 20 degC after 5 days", "assay_type": "functional", "conditions": "120 h"}, "[10]": {"test_system": "Sclerotinia sclerotiorum", "test": "Fungistatic activity in Sclerotinia sclerotiorum assessed as inhibition of carpogenic germination in volatile phase at 1460 umol/l measured at 20 degC after 5 days relative to control", "assay_type": "functional", "conditions": "120 h"}, "[11]": {"test_system": "Sclerotinia sclerotiorum", "test": "Fungistatic activity in Sclerotinia sclerotiorum assessed as inhibition of carpogenic germination in volatile phase at 732 umol/l measured at 20 degC after 5 days relative to control", "assay_type": "functional", "conditions": "120 h"}, "[12]": {"test_system": "Sclerotinia sclerotiorum", "test": "Fungistatic activity in Sclerotinia sclerotiorum assessed as inhibition of carpogenic germination in volatile phase at 146 umol/l measured at 20 degC after 5 days relative to control", "assay_type": "functional", "conditions": "120 h"}, "[13]": {"test_system": "Sclerotinia sclerotiorum", "test": "In vivo antifungal Sclerotinia sclerotiorum in Pepper (Capsicum annuum L. cv. Sera Demre) assessed as inhibition of mycelial growth in volatile phase at 146 umol/L measured after 10 to 14 weeks", "assay_type": "functional"}, "[14]": {"test_system": "Sclerotinia sclerotiorum", "test": "Fungistatic activity in Sclerotinia sclerotiorum assessed as inhibition of carpogenic germination in volatile phase at 73 umol/l measured at 20 degC after 5 days relative to control", "assay_type": "functional", "conditions": "120 h"}, "[15]": {"test_system": "Sclerotinia sclerotiorum", "test": "Fungistatic activity in Sclerotinia sclerotiorum assessed as sclerotial viability measured at 20 degC after 5 days", "assay_type": "functional, organism-based", "conditions": "120 h"}, "[16]": {"test_system": "Sclerotinia sclerotiorum", "test": "Fungistatic activity in Sclerotinia sclerotiorum assessed as inhibition of mycelial growth in volatile phase measured at 20 degC after 5 days", "assay_type": "functional, organism-based", "conditions": "120 h"}, "[17]": {"test_system": "Sclerotinia sclerotiorum", "test": "Fungistatic activity in Sclerotinia sclerotiorum assessed as inhibition of mycelial growth in contact phase measured at 20 degC after 5 days", "assay_type": "functional, organism-based", "conditions": "120 h"}, "[18]": {"test_system": "Sclerotinia sclerotiorum", "test": "Fungitoxic activity in Sclerotinia sclerotiorum assessed as viability in volatile phase at 731 umol/l measured at 20 degC after 5 days relative to control", "assay_type": "functional", "conditions": "120 h, read-out: GI"}, "[19]": {"test_system": "Sclerotinia sclerotiorum", "test": "Antifungal activity against Sclerotinia sclerotiorum assessed as inhibition of mycelial growth in volatile phase at 1460 umol/l measured at 20 degC after 5 days", "assay_type": "functional", "conditions": "120 h, read-out: GI"}, "[20]": {"test_system": "Sclerotinia sclerotiorum", "test": "Antifungal activity against Sclerotinia sclerotiorum assessed as inhibition of mycelial growth in volatile phase at 1024 umol/l measured at 20 degC after 5 days", "assay_type": "functional", "conditions": "120 h, read-out: GI"}, "[21]": {"test_system": "Sclerotinia sclerotiorum", "test": "Antifungal activity against Sclerotinia sclerotiorum assessed as inhibition of mycelial growth in volatile phase at 732 umol/l measured at 20 degC after 5 days", "assay_type": "functional", "conditions": "120 h, read-out: GI"}, "[22]": {"test_system": "Sclerotinia sclerotiorum", "test": "Antifungal activity against Sclerotinia sclerotiorum assessed as inhibition of mycelial growth in volatile phase at 146 umol/l measured at 20 degC after 5 days", "assay_type": "functional", "conditions": "120 h, read-out: GI"}, "[23]": {"test_system": "Sclerotinia sclerotiorum", "test": "Antifungal activity against Sclerotinia sclerotiorum assessed as inhibition of mycelial growth in volatile phase at 73 umol/l measured at 20 degC after 5 days", "assay_type": "functional", "conditions": "120 h, read-out: GI"}, "[24]": {"test_system": "Sclerotinia sclerotiorum", "test": "Fungistatic activity in Sclerotinia sclerotiorum assessed as inhibition of mycelial growth in contact phase at 4387 umol/l measured at 20 degC after 5 days relative to control", "assay_type": "functional", "conditions": "120 h, read-out: GI"}, "[25]": {"test_system": "Sclerotinia sclerotiorum", "test": "Fungitoxic activity in Sclerotinia sclerotiorum assessed as inhibition of mycelial growth in volatile phase at 1024 umol/l measured at 20 degC after 5 days relative to control", "assay_type": "functional", "conditions": "120 h, read-out: GI"}, "[26]": {"test_system": "Sclerotinia sclerotiorum", "test": "Antifungal activity against Sclerotinia sclerotiorum assessed as inhibition of germination in volatile phase at 1462 umol/l measured at 20 degC after 5 days", "assay_type": "functional", "conditions": "120 h"}, "[27]": {"test_system": "Sclerotinia sclerotiorum", "test": "Antifungal activity against Sclerotinia sclerotiorum assessed as inhibition of germination in volatile phase at 731 umol/l measured at 20 degC after 5 days", "assay_type": "functional", "conditions": "120 h"}, "[28]": {"test_system": "Sclerotinia sclerotiorum", "test": "Fungistatic activity in Sclerotinia sclerotiorum assessed as inhibition of mycelial growth in volatile phase at 732 umol/l measured at 20 degC after 5 days relative to control", "assay_type": "functional", "conditions": "120 h, read-out: GI"}}}
{"smiles": "CN=C=S", "note": "[METHYLISOTHIOCYANATE]", "values": [{"measurement": "inhibition in vivo at 292 µM", "setting": "[1]", "value": 85, "unit": "%"}, {"measurement": "inhibition of growth at 4387 µM", "setting": "[2]", "value": 100, "unit": "%"}, {"measurement": "inhibition of growth at 2924 µM", "setting": "[3]", "value": 81.2, "unit": "%"}, {"measurement": "inhibition of growth at 1462 µM", "setting": "[4]", "value": 54.7, "unit": "%"}, {"measurement": "inhibition of growth at 1316 µM", "setting": "[5]", "value": 18.2, "unit": "%"}, {"measurement": "inhibition of growth at 1024 µM", "setting": "[6]", "value": 10.8, "unit": "%"}, {"measurement": "inhibition at 439 µM", "setting": "[7]", "value": 66.7, "unit": "%"}, {"measurement": "inhibition at 146 µM", "setting": "[8]", "value": 6.7, "unit": "%"}, {"measurement": "inhibition at 73 µM", "setting": "[9]", "value": 0, "unit": "%"}, {"measurement": "inhibition at 1460 µM", "setting": "[10]", "value": 67.5, "unit": "%"}, {"measurement": "inhibition at 732 µM", "setting": "[11]", "value": 35, "unit": "%"}, {"measurement": "inhibition at 146 µM", "setting": "[12]", "value": 30, "unit": "%"}, {"measurement": "inhibition in vivo at 146 µM", "setting": "[13]", "value": 55, "unit": "%"}, {"measurement": "inhibition at 73 µM", "setting": "[14]", "value": 30, "unit": "%"}, {"measurement": "EC50", "setting": "[15]", "value": 336, "unit": "µM"}, {"measurement": "EC50", "setting": "[16]", "value": 79, "unit": "µM"}, {"measurement": "EC50", "setting": "[17]", "value": 168, "unit": "µM"}, {"measurement": "inhibition of growth at 731 µM", "setting": "[18]", "value": 100, "unit": "%"}, {"measurement": "inhibition of growth at 1460 µM", "setting": "[19]", "value": 100, "unit": "%"}, {"measurement": "inhibition of growth at 1024 µM", "setting": "[20]", "value": 100, "unit": "%"}, {"measurement": "inhibition of growth at 732 µM", "setting": "[21]", "value": 100, "unit": "%"}, {"measurement": "inhibition of growth at 146 µM", "setting": "[22]", "value": 55.3, "unit": "%"}, {"measurement": "inhibition of growth at 73 µM", "setting": "[23]", "value": 34.7, "unit": "%"}, {"measurement": "inhibition of growth at 4387 µM", "setting": "[24]", "value": 100, "unit": "%"}, {"measurement": "inhibition of growth at 1024 µM", "setting": "[25]", "value": 100, "unit": "%"}, {"measurement": "inhibition at 1462 µM", "setting": "[26]", "value": 100, "unit": "%"}, {"measurement": "inhibition at 731 µM", "setting": "[27]", "value": 100, "unit": "%"}, {"measurement": "inhibition of growth at 732 µM", "setting": "[28]", "value": 100, "unit": "%"}]}
